Patent US20230114241A1, “METHODS OF TREATING EPILEPSY USING THE SAME” (Trevena, Inc., priority 2019, published 2023)

Assays:
[1] = molecular target: T1, human sphingosine-1-phosphate receptor 1 (S1P1) (Homo sapiens, UniProt P21453); experiment: Inhibition of cAMP production (HTRF cAMP HiRange), S1P1 CHO-K1 cells; assay type: cell-based; settings: for Emax: CHO-K1, efficacy normalized to maximum efficacy of fingolimod, read-out: hS1P1 CAMP SPAN; for EC50: read-out: hS1P1 CAMP pEC50 (converted)
How it was run: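 CHO-K1 cells co-expressing human S1P1 (C-terminal ProLink tag) and EA-β-arrestin2, plated overnight; after 30 min compound incubation at 37 °C, intracellular cAMP measured by HTRF TR-FRET following 1 h at room temperature. Values normalized to fingolimod.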
Target sequence in this assay (P21453 whole entry): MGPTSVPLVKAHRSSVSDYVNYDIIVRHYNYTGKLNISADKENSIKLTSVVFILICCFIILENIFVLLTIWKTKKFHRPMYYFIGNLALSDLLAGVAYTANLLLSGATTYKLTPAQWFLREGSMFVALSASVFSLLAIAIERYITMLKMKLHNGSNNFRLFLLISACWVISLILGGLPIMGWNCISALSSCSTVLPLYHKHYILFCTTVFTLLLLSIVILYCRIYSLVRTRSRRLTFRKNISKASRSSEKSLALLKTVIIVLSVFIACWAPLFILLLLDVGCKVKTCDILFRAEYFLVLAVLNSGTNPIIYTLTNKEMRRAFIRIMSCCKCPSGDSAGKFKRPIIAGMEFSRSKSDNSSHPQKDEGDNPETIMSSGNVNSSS

[2] = molecular target: T1, human sphingosine-1-phosphate receptor 1 (S1P1); experiment: β-Arrestin2 recruitment assay (PathHunter), S1P1 CHO-K1 cells; assay type: cell-based; settings: for Emax: efficacy normalized to maximum efficacy of fingolimod, read-out: hS1P1 B-arrestin2 SPAN; for EC50: β-arrestin2 recruitment, read-out: hS1P1 B-arrestin2 pEC50 (converted)
How it was run: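 CHO-K1 cells co-expressing EA-β-arrestin2 and ProLink-tagged human S1P1 plated overnight, then stimulated 60 min at 37 °C. Enzyme-fragment complementation (β-galactosidase) detected after 1 h at room temperature by luminescence; values normalized to fingolimod.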
Target sequence in this assay (P21453 whole entry): as above
Target sequence in this assay (P32121 whole entry partner): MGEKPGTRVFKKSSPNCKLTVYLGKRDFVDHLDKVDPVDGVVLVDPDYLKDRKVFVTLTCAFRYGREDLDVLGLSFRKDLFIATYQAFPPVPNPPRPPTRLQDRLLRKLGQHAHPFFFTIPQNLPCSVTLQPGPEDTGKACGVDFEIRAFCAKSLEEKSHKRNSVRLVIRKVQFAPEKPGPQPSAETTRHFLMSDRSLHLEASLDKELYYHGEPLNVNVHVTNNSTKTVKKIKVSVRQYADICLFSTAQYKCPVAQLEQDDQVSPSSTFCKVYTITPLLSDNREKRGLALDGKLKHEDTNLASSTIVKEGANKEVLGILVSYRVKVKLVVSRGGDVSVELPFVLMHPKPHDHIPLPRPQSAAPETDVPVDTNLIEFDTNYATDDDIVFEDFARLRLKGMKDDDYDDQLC

[3] = inhibition of cAMP production, S1P1
[4] = inhibition of cAMP production, potency
[5] = CHO-K1, β-arrestin2 recruitment

Row | SMILES | Emax [1] [%] | EC50 [1, 3] [nM] | Emax ([2]; CHO-K1) [%] | EC50 ([2]; S1P1) [nM] | Emax ([1]; inhibition of cAMP production) [%] | EC50 [1, 4] [nM] | Emax [2, 5] [%] | EC50 ([2]; potency) [nM]
1 | CC(C)(CO)n1nnc2cc(-c3noc(-c4ccccc4Cl)n3)ccc21 [Compound 618, 2-(5-(5-(2-chloro-phenyl)-1,2,4-oxadiazol-3-yl)-1H-benzo[d][1,2,3]triazol-1-yl)-2-methylpropan-1-ol] | < 75 | > 316 | < 75 | < 10000 |  |  |  | 
2 | CN1C(=O)Cc2cc(-c3nc(-c4cccnc4)no3)ccc21 [Compound 377, 1-methyl-5-[3-(pyridin-3-yl)-1,2,4-oxadiazol-5-yl]-2,3-dihydro-1H-indol-2-one] | < 75 | > 316 | < 75 | > 10000 |  |  |  | 
3 | COc1ccccc1-c1nnc(-c2ccc3c(c2)nnn3C(C)C)s1 [Compound 144, 5-[5-(2-methoxyphenyl)-1,3,4-thiadiazol-2-yl]-1-(propan-2-yl)-1H-1,2,3-benzotriazole] |  |  |  |  | > 75 | > 316 | < 75 | < 10000
4 | Cc1ccncc1-c1noc(-c2ccc3nnn(CC(C)C)c3c2)n1 [Compound 3, 1-(2-methylpropyl)-6-[3-(4-methylpyridin-3-yl)-1,2,4-oxadiazol-5-yl]-1H-1,2,3-benzotriazole] |  |  |  |  | > 75 | < 316 | > 75 | < 10000
5 | Cc1nccnc1-c1nc(-c2ccc3c(c2)nnn3C(C)C)no1 [Compound 44, 3-(1-isopropyl-1H-benzo[d][1,2,3]triazol-5-yl)-5-(3-methylpyrazin-2-yl)-1,2,4-oxadiazole] |  |  |  |  | < 75 | > 316 | < 75 | > 10000
6 | COc1ccc(-c2nc(-c3ccc4c(c3)nnn4C3CCCC3)no2)cc1 [Compound 196, 3-(1-cyclopentyl-1H-benzo[d][1,2,3]triazol-5-yl)-5-(4-methoxyphenyl)-1,2,4-oxadiazole] |  |  |  |  | < 75 | > 316 | < 75 | > 10000
7 | CC(C)n1ccc2cc(-c3noc(-c4ccccc4C(F)(F)F)n3)ccc21 [Compound 390, 3-(1-isopropyl-1H-indol-5-yl)-5-(2-(trifluoromethyl)phenyl)-1,2,4-oxadiazole] | > 75 | < 316 | < 75 | < 10000 |  |  |  | 
8 | CC(C)n1nnc2cc(-c3noc(C4CCCC4)n3)ccc21 [Compound 278, 5-(5-cyclopentyl-1,2,4-oxadiazol-3-yl)-1-(propan-2-yl)-1H-1,2,3-benzotriazole5-(5-cyclopentyl-1,2,4-oxadiazol-3-yl)-1-(propan-2-yl)-1H-1,2,3-benzotriazole] |  |  |  |  | < 75 |  | < 75 | 
9 | CCC1(CC)CC(=O)c2cc(-c3nc(-c4cnccc4C(F)(F)F)no3)ccc2O1 [Compound 558, 2,2-diethyl-6-(3-(4-(trifluoromethyl)pyridin-3-yl)-1,2,4-oxadiazol-5-yl)chroman-4-one] | > 75 | < 316 | > 75 | < 10000 |  |  |  | 
10 | O=C1CC(CO)(CO)Oc2ccc(-c3nc(-c4cccnc4)no3)cc21 [Compound 478, 2,2-bis(hydroxymethyl)-6-[3-(pyridin-3-yl)-1,2,4-oxadiazol-5-yl]-3,4-dihydro-2H-1-benzopyran-4-one] | < 75 | > 316 | < 75 | > 10000 |  |  |  | 
11 | FC(F)(F)c1cccc(-c2noc(-c3ccc4c(c3)nnn4C3CCCC3)n2)c1 [Compound 118, 1-cyclopentyl-5-{3-[3-(trifluoromethyl)phenyl]-1,2,4-oxadiazol-5-yl}-1H-1,2,3-benzotriazole] |  |  |  |  | < 75 | > 316 | < 75 | 
12 | C=CCn1nnc2cc(-c3noc(-c4ccccc4Br)n3)ccc21 [Compound 42, 3-(1-allyl-1H-benzo[d][1,2,3]triazol-5-yl)-5-(2-bromo-phenyl)-1,2,4-oxadiazole] |  |  |  |  | > 75 | > 316 | > 75 | > 10000
13 | Cc1ccccc1-c1noc(-c2ccc3c(c2)CCC(=O)N3)n1 [Compound 365, 6-[3-(2-methylphenyl)-1,2,4-oxadiazol-5-yl]-1,2,3,4-tetrahydroquinolin-2-one] |  |  |  |  | > 75 | > 316 | < 75 | < 10000
14 | CC(C)Nc1ccc(-c2nnc(-c3cccc4[nH]cnc34)o2)cc1C#N [Compound 585, 5-[5-(1H-1,3-benzo-diazol-4-yl)-1,3,4-oxadiazol-2-yl]-2-[(propan-2-yl)amino]benzonitrile] | > 75 | < 316 | > 75 | < 10000 |  |  |  | 
15 | CC(C)n1nnc2cc(-c3noc(C4CCC4)n3)ccc21 [Compound 18, 5-(5-cyclobutyl-1,2,4-oxadiazol-3-yl)-1-(propan-2-yl)-1H-1,2,3-benzotriazole] |  |  |  |  | < 75 | > 316 | < 75 | > 10000
16 | CCC1(CC)CC(=O)c2cc(-c3nc(-c4cncc(C(F)(F)F)c4)no3)ccc2O1 [Compound 557, 2,2-diethyl-6-(3-(5-(trifluoromethyl)pyridin-3-yl)-1,2,4-oxadiazol-5-yl)chroman-4-one] | > 75 | > 316 | < 75 | < 10000 |  |  |  | 
17 | CC(C)Nc1ccc(-c2ncc(-c3ccc4[nH]c(=O)[nH]c4c3)cn2)cc1C#N [Compound 628, 2-(isopropylamino)-5-(5-(2-oxo-2,3-dihydro-1H-benzo[d]imidazol-5-yl)pyrimidin-2-yl)benzonitrile] | > 75 | < 316 | < 75 | < 10000 |  |  |  | 
18 | CC(C)Nc1ccc(-c2nnc(-c3ccc4ncn(C)c4c3)o2)cc1C#N [Compound 579, 5-[5-(1-methyl-1H-1,3-benzodiazol-6-yl)-1,3,4-oxadiazol-2-yl]-2-[(propan-2-yl)amino]benzonitrile] | > 75 | < 316 | > 75 | < 10000 |  |  |  | 
19 | OCCCn1nnc2cc(-c3noc(-c4ccccc4Br)n3)ccc21 [Compound 24, 3-(5-(5-(2-bromophenyl)-1,2,4-oxadiazol-3-yl)-1H-benzo[d][1,2,3]triazol-1-yl)propan-1-ol] |  |  |  |  | > 75 | > 316 | < 75 | > 10000
20 | CC(C)n1nnc2cc(-c3nc4cccc(Br)c4o3)ccc21 [Compound 429, 7-bromo-2-(1-isopropyl-1H-benzo[d][1,2,3]triazol-5-yl)benzo[d]oxazole] | > 75 | > 316 | > 75 | > 10000 |  |  |  | 
21 | N#Cc1cc(-c2nc(-c3ccc4c(c3)CCC(=O)N4)no2)ccc1NCC(F)(F)F [Compound 472, 5-[3-(2-oxo-1,2,3,4-tetrahydroquinolin-6-yl)-1,2,4-oxadiazol-5-yl]-2-[(2,2,2-trifluoro-ethyl)amino]benzonitrile] | > 75 | < 316 | > 75 | < 10000 |  |  |  | 
22 | CC1(C)Oc2ccc(-c3nc(-c4ccncc4)no3)cc2C1=O [Compound 480, 2,2-dimethyl-5-[3-(pyridin-4-yl)-1,2,4-oxadiazol-5-yl]-2,3-dihydro-1-benzofuran-3-one] | > 75 | > 316 | < 75 | > 10000 |  |  |  | 
23 | c1ccc(-c2noc(-c3ccc4[nH]nnc4c3)n2)cc1 [Compound 113, 5-(3-phenyl-1,2,4-oxadiazol-5-yl)-1H-1,2,3-benzotriazole] |  |  |  |  | < 75 | > 316 | < 75 | > 10000
